Experimental findings from patent publication EP0800516B1, “FIBRINOGEN RECEPTOR ANTAGONISTS HAVING SUBSTITUTED (b)-AMINO ACID RESIDUES AND PHARMACEUTICAL COMPOSITIONS COMPRISING THE SAME” (Nippon Steel Corporation, priority 1994, dated 1996) are described below.

Each structure is given as a SMILES string.

The assay deals with Human Platelet Aggregation. The assay is described as follows: in vitro human platelet aggregation using PRP (collagen-induced, light transmittance). It counts as cell-based. The note with it: aggregation induced with collagen (final concentration: 5 µ g/ml), 37°C. An excerpt:
(Measurement of in vitro Human Platelet Aggregation using PRP)
Healthy male volunteers who had not taken any medicines for at least two weeks were selected as subjects. Blood was collected from the forearm vein of each subject on an empty stomach using a #19 needle and a plastic syringe preliminarily charged with 1/10 volume of a 3.8% sodium citrate solution. Immediately after the blood collection, the syringe was shaken gently to mix the blood with the sodium citrate solution. The mixed blood was centrifuged (1100 rpm, 250 g) at room temperature for 15 minutes and the rotation was stopped without applying the brake. Then, the supernatant was collected with a Komagome type pipette to obtain platelet-rich plasma (PRP). The PRP was stored at room temperature. The blood remaining after centrifuging was further centrifuged (3500 rpm, 1500 g) at room temperature for 15 minutes and the rotation was stopped without applying the brake. The supernatant was collected to obtain platelet-poor plasma (PPP). After the preparation of the PRP, the number of platelets was counted and only samples containing more than 2 x 10^8 of platelets per milliliter were subjected to the following experiments.
Platelet aggregation was measured using an 8-channel platelet aggregation measuring instrument (Hematracer, Nikoh Bioscience, Tokyo, Japan) on the basis of the change in light transmittance through the PRP. First, the PPP and PRP (each 200µl) were placed in glass cuvettes and incubated at 37°C . Thereafter, the transmittance was measured. The transmittance of the PPP was determined as 100% and that of the PRP as 0%. Then, 10µl of physiological saline or a sample-containing physiological saline was added to the PRP and incubated at 37°C for one minute. A collagen solution (10 µ l) at a concentration of […] was added (final concentration: 5 µ g/ml) to induce aggregation and thereafter the transmittance was measured over 7 minutes. After aggregation with collagen and ADP was confirmed, only those samples in which the maximum aggregation with collagen was at least 70% were subjected to the experiment.
The sample was dissolved in physiological saline to give a concentration of 2.2 x 10 ^-2 M and a 2-fold dilution series was prepared for use in the experiments. The samples insoluble in the physiological saline were dissolved in physiological saline containing 10% DMSO (dimethyl sulfoxide).
The results were calculated as follows: [formula]
A graph was constructed by plotting the percent aggregation inhibition against the sample concentration and the concentration at which the aggregation was inhibited by 50% (IC50) was calculated from the graph.
Consider `CC(CC(=O)N1CCC(CC(=O)O)CC1)NC(=O)c1ccc(C(=N)N)cc1` (stereo not drawn) [Comparative Example 2, N-(N-4-amidinobenzoyl-β-methyl-β -alanyl)-4-piperidineacetic acid, reference compound], for which the concentration for half-maximal inhibition (IC50) (usually the concentration at which inhibition is half-maximal) was 50000 nM.
Under `N=C(N)c1ccc(C(=O)NC(CC(=O)N2CCC(CC(=O)O)CC2)c2ccccc2)cc1` (stereo not drawn) [Comparative Example 3, N-(N-4-amidinobenzoyl-β-phenyl-β -alanyl)-4-piperidineacetic acid, reference compound] stands 5200 nM.
In turn, `CCC(CNC(=O)c1ccc(C(=N)N)cc1)C(=O)N1CCC(CC(=O)O)CC1` (stereo not drawn) [Comparative Example 4, N-(N-4-amidinobenzoyl-α-ethyl-β -alanyl)-4-piperidineacetic acid, reference compound] gave a 50% inhibitory concentration (IC50) of 890 nM.
As for `CCC(C(=O)N1CCC(CC(=O)O)CC1)C(NC(=O)c1ccc(C(=N)N)cc1)c1ccccc1` (stereo not drawn) [Comparative Example 5, N-(N-4-amidinobenzoyl-β-phenyl-α -ethyl-β-alanyl)-4-piperidineacetic acid, reference compound], the figure is 16000 nM; as for `CCC(C(=O)N1CCC(CC(=O)O)CC1)C(/C=C/c1ccccc1)NC(=O)c1ccc(C(=N)N)cc1` (stereo not drawn) [Comparative Example 6, N-(N-4-amidinobenzoyl-β-trans-styryl-α-ethyl-β-alanyl)-4-piperidineacetic acid, reference compound], 85000 nM.
In turn, `CC(C)C(CNC(=O)c1ccc(C(=N)N)cc1)C(=O)N1CCC(CC(=O)O)CC1` (stereo not drawn) [Comparative Example 7, N-(N-4-amidinobenzoyl-α-isopropyl-β-alanyl)-4-piperidineacetic acid, reference compound] registered an IC50 of 17000 nM.
`CC(C)C(C(=O)N1CCC(CC(=O)O)CC1)C(NC(=O)c1ccc(C(=N)N)cc1)c1ccccc1` (stereo not drawn) [Comparative Example 8, N-(N-4-amidinobenzoyl-β-phenyl-α -isopropyl-β-alanyl)-4-piperidineacetic acid, reference compound]: the IC50 was 82000 nM.
`CC(C)C(C(=O)N1CCC(CC(=O)O)CC1)C(/C=C/c1ccccc1)NC(=O)c1ccc(C(=N)N)cc1` (stereo not drawn) [Comparative Example 9, N-(N-4-amidinobenzoyl-β-trans-styryl-α-isopropyl-β-alanyl)-4-piperidineacetic acid, reference compound] displayed an IC50 of 90000 nM.
Under `CC(C(=O)N1CCC(CC(=O)O)CC1)C(NC(=O)c1ccc(C(=N)N)cc1)c1ccccc1` (stereo not drawn) [Comparative Example 10, N-(N-4-amidinobenzoyl-β-phenyl-α-methyl-β-alanyl)-4-piperidineacetic acid, reference compound] stands 16000 nM; under `CC(C)(CNC(=O)c1ccc(C(=N)N)cc1)C(=O)N1CCC(CC(=O)O)CC1` [Example 1, N-(N-4-amidinobenzoyl-α,α-dimethyl-β-alanyl)-4-piperidineacetic acid], 570 nM; under `CC(C)(C(=O)N1CCC(CC(=O)O)CC1)C(NC(=O)c1ccc(C(=N)N)cc1)c1ccccc1` (stereo not drawn) [Example 2, N-(N-4-amidinobenzoyl-β-phenyl-α,α-dimethyl-β-alanyl)-4-piperidineacetic acid], 190 nM.
As to `CCC(NC(=O)c1ccc(C(=N)N)cc1)C(C)(C)C(=O)N1CCC(CC(=O)O)CC1` (stereo not drawn) [Example 3, N-(N-4-Amidinobenzoyl-β-ethyl-α,α-dimethyl-β-alanyl)-4-piperidineacetic acid], the IC50 worked out at 84 nM.
In turn, `CCCC(NC(=O)c1ccc(C(=N)N)cc1)C(C)(C)C(=O)N1CCC(CC(=O)O)CC1` (stereo not drawn) [Example 4, N-(N-4-amidinobenzoyl-β-n-propyl-α,α-dimethyl-β-alanyl)-4-piperidineacetic acid] came in with an IC50 of 89 nM.
For the compound `CC(C)C(NC(=O)c1ccc(C(=N)N)cc1)C(C)(C)C(=O)N1CCC(CC(=O)O)CC1` (stereo not drawn) [Example 5, N-(N-4-amidinobenzoyl-β-isopropyl-α,α-dimethyl-β-alanyl)-4-piperidineacetic acid], inhibition was half-maximal at 190 nM (IC50).
`CCCCC(NC(=O)c1ccc(C(=N)N)cc1)C(C)(C)C(=O)N1CCC(CC(=O)O)CC1` (stereo not drawn) [Example 6, N-(N-4-amidinobenzoyl-β-normal-butyl-α,α-dimethyl-β-alanyl)-4-piperidineacetic acid] came in with an IC50 of 84 nM.
With `CCCCCC(NC(=O)c1ccc(C(=N)N)cc1)C(C)(C)C(=O)N1CCC(CC(=O)O)CC1` (stereo not drawn) [Example 7, N-(N-4-amidinobenzoyl-β-normal-pentyl-α,α -dimethyl-β-alanyl)-4-piperidineacetic acid], the IC50 is 170 nM.
`COc1ccc(C(NC(=O)c2ccc(C(=N)N)cc2)C(C)(C)C(=O)N2CCC(CC(=O)O)CC2)cc1` (stereo not drawn) [Example 8, N-(N-4-amidinobenzoyl-β-p-methoxyphenyl-α, α-dimethyl-β-alanyl)-4-piperidineacetic acid] showed an IC50 of 250 nM.
On to `CC(C)(C(=O)N1CCC(CC(=O)O)CC1)C(NC(=O)c1ccc(C(=N)N)cc1)c1cccc(Cl)c1` (stereo not drawn) [Example 9, N-(N-4-amidinobenzoyl-β-m-chlorophenyl-α,α -dimethyl-β-alanyl)-4-piperidineacetic acid], for which the concentration for half-maximal inhibition (IC50) was 180 nM.
Turning to `CC(C)(C(=O)N1CCC(CC(=O)O)CC1)C(NC(=O)c1ccc(C(=N)N)cc1)c1ccc(F)cc1` (stereo not drawn) [Example 10, N-(N-4-amidinobenzoyl-β-p-fluorophenyl-α, α-dimethyl-β-alanyl)-4-piperidineacetic acid], inhibition was half-maximal at 230 nM (IC50).
`CC(C)(C(=O)N1CCC(CC(=O)O)CC1)C(CCc1ccccc1)NC(=O)c1ccc(C(=N)N)cc1` (stereo not drawn) [Example 11, N-(N-4-amidinobenzoyl-β-phenethyl-α,α-dimethyl-β-alanyl)-4-piperidineacetic acid] came in with an IC50 of 160 nM.
On to `CC(C)(C(=O)N1CCC(CC(=O)O)CC1)C(CC1CCCCC1)NC(=O)c1ccc(C(=N)N)cc1` (stereo not drawn) [Example 12, N-(N-4-amidinobenzoyl-β-cyclohexylmethyl-α, α-dimethyl-β-alanyl)-4-piperidineacetic acid], for which the midpoint of inhibition, the IC50, lay at 170 nM.
As for `CC(C)(C(=O)N1CCC(CC(=O)O)CC1)C(NC(=O)c1ccc(C(=N)N)cc1)c1ccoc1` (stereo not drawn) [Example 13, N-(N-4-amidinobenzoyl-β-(3-furyl)-α,α-dimethyl-β-alanyl)-4-piperidineacetic acid], the figure is 270 nM; as for `CC(C)(C(=O)N1CCC(CC(=O)O)CC1)C(C=Cc1ccccc1)NC(=O)c1ccc(C(=N)N)cc1` (stereo not drawn) [Example 14, N-(N-4-amidinobenzoyl-β-styryl-α,α-dimethyl-β-alanyl)-4-piperidineacetic acid], 460 nM; as for `CC(C)(C(=O)N1CCC(CC(=O)O)CC1)C(NC(=O)c1ccc(C(=N)N)cc1)C1CCNCC1` (stereo not drawn) [Example 15, N-(N-4-amidinobenzoyl-β-(4-piperidyl)-α, α-dimethyl-β-alanyl)-4-piperidineacetic acid], 180 nM.
`CC(C)(C(=O)N1CCC(CC(=O)O)CC1)C(NC(=O)c1ccc(C(=N)N)cc1)c1ccc2ccccc2c1` (stereo not drawn) [Example 16, N-(N-4-amidinobenzoyl-β-(2-naphthyl)-α,α -dimethyl-β-alanyl)-4-piperidineacetic acid] registered an IC50 of 330 nM.
Consider `CC(C)(C(=O)N1CCC(CC(=O)O)CC1)C(NC(=O)c1ccc(C(=N)N)cc1)C1CC1` (stereo not shown) [Example 17], for which the IC50 worked out at 180 nM.
`CCCCNC(=N)c1ccc(C(=O)NC(c2cccc(Cl)c2)C(C)(C)C(=O)N2CCC(CC(=O)O)CC2)cc1` (stereo not shown) [Example 18] gave an IC50 of 1000 nM.
Turning to `CN(C(=O)c1ccc(C(=N)N)cc1)C(c1ccccc1)C(C)(C)C(=O)N1CCC(CC(=O)O)CC1` (stereo not drawn) [Example 21, N-(N-4-amidinobenzoyl-N-methyl-β-phenyl-α, α-dimethyl-β-alanyl)-4-piperidineacetic acid], the half-inhibitory concentration (IC50) was determined as 330 nM.
`CC(NC(=O)c1ccc(C(=N)N)cc1)C(C)(C)C(=O)N1CCC(CC(=O)O)CC1` (stereo not drawn) [Example 22, N-(N-4-amidinobenzoyl-β-methyl-α,α-dimethyl-β-alanyl)-4-piperidineacetic acid] gave an IC50 of 520 nM.
`CC(C)(C(=O)N1CCN(CC(=O)O)CC1)C(NC(=O)c1ccc(C(=N)N)cc1)c1ccccc1` (stereo not drawn) [Example 23, N-(N-4-amidinobenzoyl-β-phenyl-α,α-dimethyl-β-alanyl)-4-piperazineacetic acid] showed an IC50 of 620 nM.
In turn, `CC(C)CC(NC(=O)c1ccc(C(=N)N)cc1)C(C)(C)C(=O)N1CCC(CC(=O)O)CC1` (stereo not drawn) [Example 24, N-(N-4-amidinobenzoyl-β-i-butyl-α,α-dimethyl-β-alanyl)-4-piperidineacetic acid] displayed an IC50 of 80 nM.
